The source of these data is patent EP4700040A1, “PEPTIDE AND LUMINESCENT COMPLEX CONTAINING SAME” (Shenzhen Loggene Life Science & Technology Co., Ltd., priority 2023, dated 2024).

Assay [1] deals with PCT. The experiment in a line: Second library screening for PCT detection, clone supernatants, retest with CTZ-h (Example 4). In kind it is biochemical, human. To be noted: for Signal-to-noise ratio: PCT+/PCT-, MBP-PCT 3.3 ng/ml, CTZ-h; for PCT+: luminescence signal value with MBP-PCT 3.3 ng/ml; for PCT+ / PCT-: large subunit-rSCFV5 12.5 nM, CTZ-h 25 µM, 60 s; for PCT-: luminescence signal value, PBSAD control without PCT. On the procedure:
In order to further improve the signal-to-noise ratio and complementary activity of the luciferase dual-antibody complementary activation assay, novel complementary luciferase small subunits were prepared in this example. Large subunit-rSCFV5 fusion protein (SEQ ID NO: 87) was kept unchanged, and the small subunit sequence of the rSCFV18-RB073 fusion protein (SEQ ID NO: 89) were modified by semi-randomization. The theoretical diversity was 6912, the library capacity was 10^6, and 3,000 single clones were picked. The method of protein induction and expression was the same as that in Example 2.
Detection Methods: • (1) The concentration of large subunit-rSCFV5 fusion protein was diluted to 12.5 nM, and 15 µl was added per well; • (2) MBP-PCT fusion protein was diluted to 3.3 ng/ml with PBSAD, and 10 µl was added per well; • (3) HB2151 strain containing plasmids with different small subunit sequences were induced by IPTG at 30°C overnight, then treated with polymyxin B for 1.5h, and centrifuged to collect the supernatant, and 2.5µl supernatant was added per well; • (4) The above three components were slightly mixed, incubated at 37°C for 7 min, and Obuffer 6.37-3 containing Furimazine at a concentration of 25 µM was added, and after 3 min, the luminescence signal value was detected using a bioluminescence detector; and • (5) Clones with RLU higher than 10,000 were picked. The substrate was replaced with CTZ-h substrate for retesting (Obuffer 6.37-3 containing CTZ-h at a concentration of 25 µM was added, and after 60 s, the luminescence signal value was detected using a bioluminescence detector), and a PBSAD control was added to test the signal-to-noise ratio.

Assay [2] deals with PCT. The experiment in a line: Sensitivity and linear range for PCT detection of preferred small subunits (Example 5). In kind it is biochemical, human. Conditions: for luminescence value: normalized; for Signal-to-noise ratio at 1000 pg/ml: large subunit 8.3~25 nM, small subunit fusion 30~180 nM, CTZ-h 15 µM. On the procedure: Detection Methods: • (1) The concentration of large subunit-rSCFV5 fusion protein was diluted with PBSA to 8.3~25nM, and 15µl was added per well; • (2) MBP-PCT fusion proteins were diluted with PBSAD in a downward gradient starting from 2.5 µg/ml, and 10 µl was added per well; • (3) The rSCFV18-small subunit mutant-containing fusion protein was diluted with PBSA to 30~180 nM, and 15 µl was added per well; • (4) The above three components were slightly mixed, incubated at 37°C for 15 min, and Obuffer 6.37-3 containing CTZ-h at a concentration of 15 µM was added, and the luminescence signal value was immediately detected using a bioluminescence detector (the luminescence value was normalized);

In the case of VSGYRLFDRKS [RC-098], in assay [1], the Signal-to-noise ratio was determined as 5.1, the “PCT+” value was determined as 8666 and the PCT- was determined as 1698.
On the same counts, the results for VSGWRIFDRKS [RC-041] are 4.7, 11789 and 2495.
Taken in the same sequence, the figures for VNGWRLFDKKS [RC-271] were 5.0, 7132 and 1428.
As for VEGYRLFEKVS [RC-042], in assay [1], the Signal-to-noise ratio is on record as 9.7, the “PCT+” value is 5769 and the PCT- is 593.
Regarding VNGWRIFDKKS [RC-242], in assay [1], the Signal-to-noise ratio is 5.9, the “PCT+” value was 9037 and the PCT- was 1524.
On the same counts, the results for VSGYRLFDKKS [RC-134] are 7.7, 9409 and 1223.
For the sequence VEGYRLFEKIS [RC-082], in assay [1], the Signal-to-noise ratio is given as 5.8, the “PCT+” value was found to be 12852 and the PCT- turned out to be 2232.
Take VDGWRLFDKKS [RC-224]: the luminescence value worked out at 5000 in assay [2] (PCT 0.0, background); 5021 in assay [2] (PCT 1 (pg/ml)); 5002 in assay [2] (PCT 3 (pg/ml)); 5260 in assay [2] (PCT 10 (pg/ml)); 5685 in assay [2] (PCT 30 (pg/ml)); 7341 in assay [2] (PCT 100 (pg/ml)). Also, the luminescence value in assay [2] (PCT 1000 (pg/ml)) came to 28543; in assay [2] (PCT 10000 (pg/ml)) it was 240337; in assay [2] (PCT 100000 (pg/ml)) it was 1453897; in assay [2] (PCT 250000 (pg/ml)) it was 1856339. Also, in assay [2], the “Signal-to-noise ratio at 1000 pg/ml” value worked out at 5.7. Also, the Signal-to-noise ratio in assay [1] stood at 9.2. Further, in assay [1], the “PCT+” value is 10561. This sequence also came in with a PCT- in assay [1] of 1142.
Turning to VSGYRLFDRKW [RC-033], in assay [1], the Signal-to-noise ratio is listed as 10.4, the “PCT+” value came to 8509 and the PCT- stood at 820.
Taken in the same sequence, the figures for VEGWRIFERKW [RC-070] were 5.2, 8980 and 1715.
Taken in the same sequence, the figures for VSGYRLFDRKS [RC-228] were 5.4, 16339 and 3000.
With VSGYRLFDKKS [RC-187], the luminescence value in assay [2] (PCT 0.0, background) is 5000; in assay [2] (PCT 1 (pg/ml)) it was 4944; in assay [2] (PCT 3 (pg/ml)), 4968; in assay [2] (PCT 10 (pg/ml)), 5099; in assay [2] (PCT 30 (pg/ml)) it was 5570; in assay [2] (PCT 100 (pg/ml)), 7032. Further, the luminescence value in assay [2] (PCT 1000 (pg/ml)) came to 27642; in assay [2] (PCT 10000 (pg/ml)), 214329; in assay [2] (PCT 100000 (pg/ml)), 910908; in assay [2] (PCT 250000 (pg/ml)) it was 1012760. In addition, in assay [2], the “Signal-to-noise ratio at 1000 pg/ml” value is 5.5. Further, in assay [1], the Signal-to-noise ratio turned out to be 7.9. The “PCT+” value in assay [1] is reported as 11049. The same sequence returned a PCT- in assay [1] of 1405.
In the case of VDGWRLFDKKS [RC-103], in assay [1], the Signal-to-noise ratio turned out to be 6.5, the “PCT+” value was 8672 and the PCT- amounted to 1337.
On the same counts, the results for VSGYRIFEKKS [RC-152] are 5.6, 9688 and 1715.
VEGYRLFEKIS [RC-239]: in assay [1], the Signal-to-noise ratio is reported as 6.0, the “PCT+” value is 10022 and the PCT- is listed as 1676.
As to VDGWRLFERKS [RC-171], in assay [1], the Signal-to-noise ratio turned out to be 7.6, the “PCT+” value is 10309 and the PCT- stood at 1363.
Taken in the same sequence, the figures for VSGYRLFDKVS [RC-208] were 6.0, 12303 and 2056.
Taken in the same sequence, the figures for VSGWRIFDKKS [RC-124] were 7.5, 9280 and 1234.
Turning to VDGWRLFDKKS [RC-175], in assay [1], the Signal-to-noise ratio turned out to be 11.8, the “PCT+” value amounted to 6953 and the PCT- is 587.
On the same counts, the results for VSGYRLFDKKW [RC-261] are 4.5, 7217 and 1616.
Turning to VEGYRLFDKVS [RC-087], in assay [1], the Signal-to-noise ratio is recorded as 8.0, the “PCT+” value was found to be 6923 and the PCT- is 861.
On the same counts, the results for VEGYRLFERKS [RC-105] are 5.0, 14534 and 2934.
Regarding VSGYRIFDKKS [RC-044], in assay [1], the Signal-to-noise ratio was found to be 8.0, the “PCT+” value came to 10392 and the PCT- is given as 1302.
Taken in the same sequence, the figures for VSGYRLFDKVS [RC-114] were 6.5, 6401 and 982.
Taken in the same sequence, the figures for VSGYRIFEKKW [RC-113] were 5.3, 6207 and 1176.
On the same counts, the results for VSGYRLFDRKS [RC-018] are 6.6, 13188 and 1998.
Turning to VEGWRLFDRVS [RC-237], in assay [1], the Signal-to-noise ratio was 5.0, the “PCT+” value is on record as 10821 and the PCT- is on record as 2186.
On the same counts, the results for VSGYRLFDRVW [RC-220] are 5.7, 6738 and 1192.
Regarding VSGYRIFEKKS [RC-129], in assay [1], the Signal-to-noise ratio amounted to 5.8, the “PCT+” value came to 12040 and the PCT- is listed as 2068.
As for VEGYRLFEKIS [RC-036], in assay [1], the Signal-to-noise ratio came to 5.5, the “PCT+” value came to 8563 and the PCT- was determined as 1565.
On the same counts, the results for VSGYRIFERKW [RC-206] are 5.9, 7413 and 1260.
In the case of VEGYRLFERKS [RC-145], in assay [1], the Signal-to-noise ratio came out at 10.1, the “PCT+” value was 8198 and the PCT- stood at 808.
On the same counts, the results for VDGYRLFERKS [RC-203] are 6.6, 10062 and 1536.
On the same counts, the results for VEGWRLFDRKS [RC-232] are 5.8, 18313 and 3183.
On the same counts, the results for VEGYRLFDKVS [RC-247] are 8.8, 4398 and 497.
For VSGYRLFDRVS [RC-032], in assay [1], the Signal-to-noise ratio was determined as 4.8, the “PCT+” value is given as 9519 and the PCT- amounted to 1998.
